The target in experiment [1] is T1, Pseudomonas aeruginosa LpxC enzyme (Pseudomonas aeruginosa, UniProt P47205).
T1 construct: made in house; host or cells: E. coli
T1 sequence (P47205 1-303): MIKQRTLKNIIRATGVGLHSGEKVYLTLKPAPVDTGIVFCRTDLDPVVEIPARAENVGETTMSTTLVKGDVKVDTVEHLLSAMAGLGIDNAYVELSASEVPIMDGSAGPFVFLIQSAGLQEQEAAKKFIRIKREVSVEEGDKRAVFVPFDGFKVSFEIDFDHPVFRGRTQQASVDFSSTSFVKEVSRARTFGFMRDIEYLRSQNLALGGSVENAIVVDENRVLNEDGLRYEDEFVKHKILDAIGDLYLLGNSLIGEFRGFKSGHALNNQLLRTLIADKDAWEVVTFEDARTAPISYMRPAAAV
The experiment in a line: IC50 assay, LpxC enzyme from P. aeruginosa (PA LpxC enzyme IC50). The class given is biochemical. Particulars: LpxC enzyme 0.1 nM, 25° C., 1 hour. The procedure, abridged:
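The LpxC reaction ran 1 hour and was stopped with HCl. Substrate-to-product conversion was measured by RapidFire mass spectrometry, and IC50 values were calculated from percent conversion relative to a no-enzyme control.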

For experiment [2], the system named is Acinetobacter baumannii/haemolyticus, multidrug-resistant clinical isolate (AB-3167). Put plainly: MIC determination, AB-3167. Particulars: Table 2, lower of duplicate values. In kind it is cell-based. In short, it runs like this:
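Broth dilution MIC per CLSI M7-A8, 2-fold drug series, overnight incubation, lowest concentration visibly inhibiting growth against drug-free control. Run in duplicate, lower value reported; duplicates differing >2-fold repeated; QC strains and reference compounds required in range.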

For experiment [3], the system named is Escherichia coli EC-1: VOGEL, mouse virulent. Put plainly: MIC determination, EC-1. The class given is cell-based. As to conditions: Escherichia coli, read-out: EC-1 (MIC), Table 2, lower of duplicate values. In short, it runs like this:
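MIC against mouse-virulent E. coli EC-1 (VOGEL) was determined by CLSI M7-A8 broth dilution with 2-fold drug increments and overnight incubation. The MIC is the lowest concentration with no visible growth versus drug-free control. Tests were run in duplicate and the lower value reported if within 2-fold, with QC organisms and reference drugs in each run.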

The subject of experiment [4] is Pseudomonas aeruginosa UI-18: wild-type (PA-7). Put plainly: MIC determination, PA-7. The class given is cell-based. Particulars: Table 2, lower of duplicate values. As for the experimental part: The in vitro antibacterial activity of compounds described in the Examples was evaluated by minimum inhibitory concentration (MIC) testing according to Clinical and Laboratory Standards Institute (CLSI). See: Clinical and Laboratory Standards Institute. Methods for Dilution Antimicrobial Susceptibility Tests for Bacteria that Grow Aerobically; Approved Standard-Eighth Edition. CLSI document M7-A8 [ISBN 1-56238-689-1]. Clinical and Laboratory Standards Institute, 940 West Valley Road, Suite 1400, Wayne, Pa. 19087-1898 USA, 2006; also Clinical and Laboratory Standards Institute. Performance Standards for Antimicrobial Susceptibility Testing; Twentieth Informational Supplement. CLSI document M100-S20 [ISBN 1-56238-716-2]. Clinical and Laboratory Standards Institute.
The MIC determination is a standard laboratory method for evaluating the antibacterial activity of a compound. The MIC represents the lowest drug concentration that inhibits visible growth of bacteria following overnight incubation. […] Typically, the drug concentration range is broken down into 2-fold increments (e.g. 0.06 μg/mL, 0.12 μg/mL. 0.25 μg/mL, 0.50 μg/mL, 1.0 μg/mL, etc.) and the various drug concentrations are all individually incubated overnight with approximately the same number of bacteria. The MIC is then determined by visually inspecting the drug effect at each concentration, and identifying the lowest drug concentration that has inhibited bacterial growth as compared to the drug free control. Typically, bacteria continue to grow at drug concentrations lower than the MIC and don't grow at concentrations at and above the MIC.
The MIC values described in Table 2 and 3 below were derived from assays wherein each test compound was evaluated in duplicate. In cases where the duplicate values varied by 0-2-fold, the lower of the two values was reported below. Generally speaking, if the duplicate values varied by more than 2-fold, the assay was considered non-valid and was repeated until the variation between duplicate runs was ≦2-fold. In line with the CLSI guidelines referred to above, both control organisms and reference compounds were utilized in each MIC assay to provide proper quality control. MIC values generated with these control organisms and reference compounds were required to fall within a defined range for the assay to be considered valid and be included herein. Those skilled in the art will recognize that MIC values can and do vary from experiment to experiment. Generally speaking, it should be recognized that MIC values often vary +/−2-fold from experiment to experiment. While a single MIC is reported for each compound and each microorganism, the reader should not conclude that each compound was only tested once. Several of the compounds were subjected to multiple tests. The data reported in Tables 2 and 3 is reflective of the compounds relative activity and different MICs may have been generated on these occasions in line with the guidelines described above.
The following bacterial strains were used in these MIC determinations:
1) Pseudomonas aeruginosa UI-18: Wild-type, labeled as PA-7 in Tables 2 and 3;

≈ marks a conversion by molar mass, not a printed value. Read-outs that look alike come from different tables or passages of the source.

Usually IC50 stands for the concentration needed to halve the response being measured. One may read the MIC as the least concentration at which growth counts as inhibited.

Consider `COc1cnn(-c2ccc(-c3cc(=O)n(CC[C@](C)(C(=O)NO)S(C)(=O)=O)cc3F)cc2)n1` [Example 22, (2R)-4-{5-Fluoro-4-[4-(4-methoxy-2H-1,2,3-triazol-2-yl)phenyl]-2-oxopyridin-1(2H)-yl}-N-hydroxy-2-methyl-2-(methylsulfonyl)butanamide], for which, in experiment [1] (Table 2, read-out: PA:IC50), the IC50 is 0.181 nM. The MIC in experiment [2] was above 64 µg/mL; in experiment [3] it was at most 0.06 µg/mL; in experiment [4] it was 0.5 µg/mL (≈ 1.04 µM).
`C[C@@](CCn1cc(F)c(-c2ccc(OCC(F)(F)F)cc2)cc1=O)(C(=O)NO)S(C)(=O)=O` [Example 7, (2R)-4-{5-Fluoro-2-oxo-4-[4-(2,2,2-trifluoroethoxy)phenyl]pyridin-1(2H)-yl}-N-hydroxy-2-methyl-2-(methylsulfonyl)butanamide]: the IC50 in experiment [1] (Table 2, read-out: PA:IC50) stood at 0.576 nM. Moreover, the MIC is above 64 µg/mL in experiment [2], 0.25 µg/mL (≈ 0.52 µM) in experiment [3] and 1 µg/mL (≈ 2.08 µM) in experiment [4].
Turning to `CSc1ccc(-c2cc(=O)n(CC[C@](C)(C(=O)NO)S(C)(=O)=O)cc2F)cc1` [Example 9, (2R)-4-{5-Fluoro-4-[4-(methylthio)phenyl]-2-oxopyridin-1(2H)-yl}-N-hydroxy-2-methyl-2-(methylsulfonyl)butanamide], in experiment [1] (PA:IC50, Table 2), the IC50 came to 0.51 nM. The results for the MIC in experiment [2], in experiment [3] and in experiment [4] were above 64 µg/mL, 0.25 µg/mL (≈ 0.583 µM) and 0.5 µg/mL (≈ 1.17 µM), respectively.
As to `C[C@@](CCn1cc(F)c(-c2ccc(Cl)cc2F)cc1=O)(C(=O)NO)S(C)(=O)=O` [Example 16, (2R)-4-[4-(4-Chloro-2-fluorophenyl)-5-fluoro-2-oxopyridin-1(2H)-yl]-N-hydroxy-2-methyl-2-(methylsulfonyl)butanamide], the half-inhibitory concentration (IC50) in experiment [1] (Table 2, read-out: PA:IC50) was 0.336 nM. Moreover, the MIC in experiment [2] was above 64 µg/mL; in experiment [3], 0.25 µg/mL (≈ 0.575 µM); in experiment [4], 0.5 µg/mL (≈ 1.15 µM).
Consider `COc1ccc(-c2cc(=O)n(CC[C@](C)(C(=O)NO)S(C)(=O)=O)cc2F)cc1F` [Example 19, (2R)-4-[5-Fluoro-4-(3-fluoro-4-methoxyphenyl)-2-oxopyridin-1(2H)-yl]-N-hydroxy-2-methyl-2-(methylsulfonyl)butanamide], for which, in experiment [1] (Table 2, read-out: PA:IC50), the IC50 worked out at 0.879 nM. Further, the MIC in experiment [2] is above 64 µg/mL; in experiment [3] it was 2 µg/mL (≈ 4.65 µM); in experiment [4] it was 1 µg/mL (≈ 2.32 µM).
For the compound `[2H]C([2H])([2H])C([2H])([2H])Oc1ccc(-c2cc(=O)n(CC[C@](C)(C(=O)NO)S(C)(=O)=O)cc2F)cc1` [Example 45, (2R)-4-[4-(4-Pentadeuteroethoxyphenyl)-5-fluoro-2-oxopyridin-1(2H)-yl]-N-hydroxy-2-methyl-2-(methylsulfonyl)butanamide], the IC50 in experiment [1] (Table 2, read-out: PA:IC50) came out at 0.547 nM. Also, the MIC in experiment [2] was above 64 µg/mL; in experiment [3], 0.125 µg/mL (≈ 0.29 µM); in experiment [4], 0.5 µg/mL (≈ 1.16 µM).
`C[C@@](CCn1cc(F)c(-c2ccc(OC[C@H]3CC[C@H](O)CC3)cc2)cc1=O)(C(=O)NO)S(C)(=O)=O` [Example 18, (2R)-4-[5-Fluoro-4-{4-[(trans-4-hydroxycyclohexyl)methoxy]phenyl}-2-oxopyridin-1(2H)-yl]-N-hydroxy-2-methyl-2-(methylsulfonyl)butanamide]: the IC50 in experiment [1] (Table 2, read-out: PA:IC50) was 0.463 nM. Moreover, the MIC was above 64 µg/mL in experiment [2], 0.125 µg/mL (≈ 0.245 µM) in experiment [3] and 1 µg/mL (≈ 1.96 µM) in experiment [4].
The matching figures for `C[C@@](CCn1cc(F)c(C#Cc2ccccc2)cc1=O)(C(=O)NO)S(C)(=O)=O` [Example 48, (2R)-4-[5-Fluoro-2-oxo-4-(phenylethynyl)pyridin-1(2H)-yl]-N-hydroxy-2-methyl-2-(methylsulfonyl)butanamide]: 0.555 nM, above 64 µg/mL, 0.06 µg/mL (≈ 0.148 µM) and 0.5 µg/mL (≈ 1.23 µM).
Take `C[C@@](CCn1cc(F)c(-c2cccc(Oc3nccs3)c2)cc1=O)(C(=O)NO)S(C)(=O)=O` [Example 49, (2R)-4-{5-Fluoro-2-oxo-4-[3-(1,3-thiazol-2-yloxy)phenyl]pyridin-1(2H)-yl}-N-hydroxy-2-methyl-2-(methylsulfonyl)butanamide]: the IC50 in experiment [1] (Table 2, read-out: PA:IC50) was determined as 0.758 nM. Further, the MIC was above 64 µg/mL in experiment [2], 0.25 µg/mL (≈ 0.519 µM) in experiment [3] and 2 µg/mL (≈ 4.15 µM) in experiment [4].

Values taken from patent US8624034B2, “Fluoro-pyridinone derivatives useful as antibacterial agents” (Pfizer Inc., priority 2011, dated 2014).
